IC50 and inhibition data for 1 compound are collected here from ChEMBL document CHEMBL5257106, “Design, synthesis, and biological evaluation of novel HDAC inhibitors with a 3-(benzazol-2-yl)quinoxaline framework” (Bioorg Med Chem Lett, 2023).

In one assay the test system is A2780. Briefly: Antiproliferative activity against human A2780 cells assessed as inhibition of cell growth by MTT assay. It counts as functional, cell-based. For orientation: Tetrazolium assays rely on reduction of a dye to a coloured formazan, in cell work by metabolically active cells.
Assay [1] addresses T1, DNA topoisomerase 1 (Homo sapiens) (UniProt P11387).
T1 sequence (whole entry): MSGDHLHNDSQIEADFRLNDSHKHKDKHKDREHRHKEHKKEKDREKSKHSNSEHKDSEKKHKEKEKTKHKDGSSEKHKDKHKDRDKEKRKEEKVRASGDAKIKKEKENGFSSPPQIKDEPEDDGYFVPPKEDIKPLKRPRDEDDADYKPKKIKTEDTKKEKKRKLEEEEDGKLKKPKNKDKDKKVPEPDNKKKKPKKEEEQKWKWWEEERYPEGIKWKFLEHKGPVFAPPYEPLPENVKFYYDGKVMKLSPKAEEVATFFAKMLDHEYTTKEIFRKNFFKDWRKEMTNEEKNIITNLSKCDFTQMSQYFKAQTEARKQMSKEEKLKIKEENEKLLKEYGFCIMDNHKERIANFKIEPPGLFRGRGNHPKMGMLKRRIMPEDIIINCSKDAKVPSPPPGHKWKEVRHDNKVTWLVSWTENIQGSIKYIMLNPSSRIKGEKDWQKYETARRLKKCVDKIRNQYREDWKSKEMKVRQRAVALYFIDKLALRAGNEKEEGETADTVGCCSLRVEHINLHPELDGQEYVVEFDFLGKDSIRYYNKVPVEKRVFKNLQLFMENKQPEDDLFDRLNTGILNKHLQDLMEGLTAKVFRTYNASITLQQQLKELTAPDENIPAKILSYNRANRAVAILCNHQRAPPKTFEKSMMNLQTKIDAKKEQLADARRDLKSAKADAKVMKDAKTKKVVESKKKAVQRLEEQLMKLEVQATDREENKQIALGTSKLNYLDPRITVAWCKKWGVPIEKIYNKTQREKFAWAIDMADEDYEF
Briefly: Inhibition of topoisomerase 1 in human HCT-116 cells assessed as suppression of Topo 1 protein expression incubated for 24 hrs by Western blot analysis. It counts as cell-based. The settings on record: dose 0.5-1 µM. In general terms: In western blotting, separated proteins are transferred to a membrane and probed.

In general, IC50 refers to the concentration at which inhibition is half-maximal. `O=C(CCCCCCNc1nc2ccccc2nc1-c1nc2ccccc2o1)NO`: the IC50 in the assay on A2780 stood at 1.76 µM. For the same compound, in assay [1], the inhibition result was “Dose-Dependent Effect”.
